Data set [1] has as its system microglia. Put plainly: Flow cytometry phagocytosis assay with strepavidin or biotin beads. The class given is cell-based. The following applies: 30 minutes pretreatment, beads 90 minutes. The method, then: Phagocytosis assay: 6 μm strepavidin beads or 5.2 μm biotin beads were added to microglia for 90 minutes. Cells were moved to ice and stained with either a biotin or strepavidin labeled antibodies to identify un-ingested beads. To confirm the ability to identify intra-verses extracellular bound beads by flow cytometry microglia were treated with Cytochalasin D for 30 minutes prior to the addition of beads.
(A flow cytometer gives signals particle by particle.)

For data set [2], the system named is LRRK2. As to the kind of experiment: LRRK2 mRNA, protein and kinase activity in INF-γ treated microglia. In kind it is cell-based. The following applies: INF-γ treatment of microglia. The text has this:
FIG. 16: INF-γ treatment of microglia induced LRRK2 mRNA transcript levels and protein levels by about 2 fold.
We have tested the effect of LRRK2 kinase inhibitors on phagocytosis in cells transformed with LRRK2 G2019S. We have a number of compounds known to inhibit LRRK2 kinase activity. Some of these compounds have enantiomers that are known inhibitors of either cFMS or PLK2 inhibitors but have minimal effect on LRRK2. Pairs of enantiomers one of which is known inhibitor of LRRK2 and one of which inhibits cFMS or PLK2 without substantially effect on LRRK2 can be used to measure LRRK2-specific effects on phagocytosis.

Data set [3] deals with microglia. As to the kind of experiment: Phagocytosis of 10 micron beads by INFγ treated microglia, with or without LRRK2 inhibitors. In kind it is cell-based. The following applies: INFγ 24 hr.
In data set [4] the test system is wild type microglia. Put plainly: Phagocytosis after INFγ overnight, wild type littermate microglia. In kind it is cell-based, mouse. The following applies: beads 90 minutes. The text has this:
(§1) To test a more physiologic system in which altered activation of LRRK2 and elevated synuclein may occur, we tested the effect of INFγ treatment on phagocytosis in wild type and synuclein-overexpressing microglia. As described above INFγ treatment naturally raises LRRK2 levels as well as increased LRRK2 phosphorylation and activity. Using our line 3 heterozygote X heterozygote crosses (generating homozygous alpha synuclein mice) in which, by culturing each pup separately wild type and synuclein overexpressing littermate cultures are generated. Microglia isolated from the various pups were exposed to INFγ overnight and which point […] beads were added for 90 minutes and phagocytosis was assessed while we were still blinded to the genotype of each culture. […] The ability of the environment to impact these pathways may help explain the incomplete penetrance and onset of Parkinson's symptoms observed with various familial forms of PD.

For data set [5], the system named is synuclein overexpressing cells. Put plainly: Phagocytosis after INFγ overnight, synuclein overexpressing microglia. The following applies: beads 90 minutes. In kind it is cell-based, mouse.
From the text: as §1

In data set [6] the test system is LRRK2. Put plainly: LRRK2 phosphorylation in stimulated murine microglia (PT1967 P-LRRK2 antibody). In kind it is cell-based, mouse. The following applies: primary microglia stimulated for various times. The protocol:
Although neurons express LRRK2, this expression appears to be low relative to that of B-cells and macrophages. […] For example, murine microglia were stimulated with MCSF for various times or […] beads for 30 minutes. LRRK2 phosphorylation was probed with PT1967 P-LRRK2 antibody.

Data set [7] relates to H4 cells. As to the kind of experiment: Bead phagocytosis in H4 cells with tetracycline inducible synuclein transfected with Rab proteins. The following applies: synuclein overexpressing H4 cells (tetracycline 48 hours), 4 μM beads 90 minutes. In kind it is cell-based, human. The protocol: FIG. 11: Rabs proteins were transfected into a stable H4 cells containing a tetracycline inducible synuclein construct. Cells were treated or untreated with tetracycline for 48 hours and then fed 4 μM beads for 90 minutes and a phagocytic index calculated.
In quantifying phagocytosis in cells overexpressing synuclein we noticed that synuclein translocates to the phagocytic cup and localized with regions of active actin rearrangement. Under resting conditions synuclein resides in the cytoplasm and following 45 and 90 minutes of bead addition synuclein translocates to sites of actin polymerization and bead contact. SNARE complexes are composed of three components, a SNAP, a syntaxin, and a VAMP protein. These three proteins come together and prime vesicles for fusion with the plasma membrane. On fusion vesicles release their contents and SNARE complexes are disassembled by two adaptor proteins, NSF and α-SNAP. Some members from these dissociated complexes recycle back to the cytoplasm via recycling endosomes and can be used to prime subsequent fusion events. All three protein members of the SNARE complex are alpha helices and on assembly form an energy favorable, very unique SDS stable complex. Although these complexes resist SDS dissociation they will dissociate following boiling. Therefore one SNARE complexes can be flowed as SDS stable complexes in boiled and unboiled lysates. We hypothesized that defective vesicle mobilization may be associated with or due to altered SNARE complex formation of SNARE complex. H4 cells transfected with synuclein were fed beads for 15, 45, or 90 minutes, samples were lysed and run on western formation. […] Alterations in SNARE complexes were also observed in microglia isolated from synuclein genomic mice (data not shown). To elucidate how synuclein alters vesicle trafficking and SNARE complex formation/function we assessed interaction of synuclein with components of the SNARE family. […] To test the possibility that molecules which facilitate vesicle movement could overcome the ability of elevated levels of synuclein to block phagocytosis, a stable H4 cell line overexpressing synuclein was transfected with various Rab proteins. We verified that the Rab proteins were overexpressed and phagocytosis was assessed in wild type and synuclein over expressing cells.

Turning to `C=C1[C@@H](C)[C@H]2[C@H](Cc3ccccc3)NC(=O)[C@]23[C@H](OC(C)=O)/C=C/[C@@](C)(O)C(=O)[C@@H](C)C/C=C/[C@H]3[C@@H]1O` [Cytochalasin D], the “phagocytosis of 5 and 6 micron beads” value in data set [1] is “blocked this phagocytosis”.
As for “INFγ: interferon gamma, described as agonist of LRRK2”, the “induction of LRRK2 mRNA transcript levels” value in data set [2] is “about 2 fold”. Also, in data set [2], the “induction of LRRK2 protein levels” value is reported as “about 2 fold”. The “phagocytosis of 10 micron beads” value in data set [3] is “increased phagocytosis”. Besides, the phagocytosis result in data set [4] is “enhanced phagocytosis”; in data set [5], “even further reduction in phagocytosis”.

B1: MCSF: stimulus that engages the actin cytoskeleton, used on murine microglia (protein, UniProt P07141 33-552, looked up)
Macrophage colony-stimulating …: KEVSEHCSHMIGNGHLKVLQQLIDSQMETSCQIAFEFVDQEQLDDPVCYLKKAFFLVQDIIDETMRFKDNTPNANATERLQELSNNLNSCFTKDYEEQNKACVRTFHETPLQLLEKIKNFFNETKNLLEKDWNIFTKNCNNSFAKCSSRDVVTKPDCNCLYPKATPSSDPASASPHQPPAPSMAPLAGLAWDDSQRTEGSSLLPSELPLRIEDPGSAKQRPPRSTCQTLESTEQPNHGDRLTEDSQPHPSAGGPVPGVEDILESSLGTNWVLEEASGEASEGFLTQEAKFSPSTPVGGSIQAETDRPRALSASPFPKSTEDQKPVDITDRPLTEVNPMRPIGQTQNNTPEKTDGTSTLREDHQEPGSPHIATPNPQRVSNSATPVAQLLLPKSHSWGIVLPLGELEGKRSTRDRRSPAELEGGSASEGAARPVARFNSIPLTDTGHVEQHEGSSDPQIPESVFHLLVPGIILVLLTVGGLLFYKWKWRSHRDPQTLDSSVGRPEDSSLTQDEDRQVELPV
On to B1, for which the LRRK2 phosphorylation result in data set [6] was “can be enhanced”.

B2: Rab11b: Rab protein (Swiss Prot Q15907) overexpressed by transfection in H4 cells (protein, UniProt Q15907 2-215, looked up)
Ras-related protein Rab-11B: GTRDDEYDYLFKVVLIGDSGVGKSNLLSRFTRNEFNLESKSTIGVEFATRSIQVDGKTIKAQIWDTAGQERYRAITSAYYRGAVGALLVYDIAKHLTYENVERWLKELRDHADSNIVIMLVGNKSDLRHLRAVPTDEARAFAEKNNLSFIETSALDSTNVEEAFKNILTEIYRIVSQKQIADRAAHDESPGNNVVDISVPPTTDGQKPNKLQCC
Take B2: the “phagocytosis (phagocytic index)” value in data set [7] was “rescued synuclein modulation of phagocytosis”; in data set [7] (listed as Rab11B), “restored phagocytosis”.

B3: Rab3b: Rab protein (Swiss Prot P20337) overexpressed by transfection in H4 cells (protein, UniProt P20337 2-219, looked up)
Ras-related protein Rab-3B: ASVTDGKTGVKDASDQNFDYMFKLLIIGNSSVGKTSFLFRYADDTFTPAFVSTVGIDFKVKTVYRHEKRVKLQIWDTAGQERYRTITTAYYRGAMGFILMYDITNEESFNAVQDWATQIKTYSWDNAQVILVGNKCDMEEERVVPTEKGQLLAEQLGFDFFEASAKENISVRQAFERLVDAICDKMSDSLDTDPSMLGSSKNTRLSDTPPLLQQNCSC
For B3, the “phagocytosis (phagocytic index)” value in data set [7] was “rescued synuclein modulation of phagocytosis”; in data set [7] (listed as Rab3B), “restored phagocytosis”.

B4: INFγ: interferon gamma, described as agonist of LRRK2 (protein, UniProt P01579 24-161, looked up)
Interferon gamma: QDPYVKEAENLKKYFNAGHSDVADNGTLFLGILKNWKEESDRKIMQSQIVSFYFKLFKNFKDDQSIQKSVETIKEDMNVKFFNSNKKKRDDFEKLTNYSVTDLNVQRKAIHELIQVMAELSPAAKTGKRKRSQMLFRG
As for B4, the “LRRK2 kinase activity (LRRK2 phosphorylation, LRRK-tide phosphorylation assay)” value in data set [2] is “apparent increase in LRRK2 kinase activity”.
